{"source": "patent US11273146B2", "about": "“Benzofuran derivatives and their use as bromodomain inhibitors” (GLAXOSMITHKLINE INTELLECTUAL PROPERTY (NO. 2) LIMITED, priority 2017, dated 2022)", "data": [{"target": "T1, BRD4 BD2 (Homo sapiens, UniProt O60885, Y97A)", "T1 construct": "BRD4 (1-477) (Y97A) and (Y390A); made in house; host or cells: E. coli (pET15b vector)", "assay": "TR-FRET competition assay, BRD4 BD2", "assay_type": "binding", "settings": "single mutant tandem BRD4, read-out: pIC50 in the BRD4 BD2 assay (converted)", "procedure": "Bromodomain binding was assessed utilising a time resolved fluorescent resonance energy transfer (TR-FRET) competition assay. To enable this approach a known, high affinity, pan-BET interacting small molecule was labelled with Alexa Fluor® 647, which is a far-red-fluorescent dye (Reference Compound X). Reference Compound X acts as a reporter of bromodomain binding and is the acceptor fluorophore component of the TR-FRET pair. Europium chelate, conjugated to an anti-6*His antibody, was utilised as the donor fluorophore in the TR-FRET pair. […] A TR-FRET signal is generated when the donor and acceptor fluorophores are in close proximity, between 20-80 Å, which is enabled in this assay by binding of Reference Compound X to the bromodomain protein.\nIf the acceptor fluorophore is in close proximity then energy transfer can occur, which leads to emission of Alexa Fluor® 647 at λ665 nm. In the presence of competitor compound, Reference Compound X can be displaced from binding to the bromodomain. If displacement occurs, the acceptor fluorophore is no longer in proximity to the donor fluorophore, which prevents fluorescent energy transfer and, subsequently, a loss of Alexa Fluor® 647 emission at λ665 nm.\nThe competition of the compounds of formula (I) with Reference Compound X for binding to the BET family (BRD2, BRD3, BRD4 and BRDT) was assessed using protein truncates spanning both bromodomain 1 (BD1) and bromodomain 2 (BD2). In order to monitor differential binding to either BD1 or BD2, single residue mutations of key tyrosines to alanine were made in the acetyl lysine binding pockets. To validate this approach, a double residue mutant tandem domain protein was produced for each of the BET family members. Utilising a Fluorescence Polarisation approach, binding affinities for each of the single and double mutants for Reference Compound X were determined. […] Final purification was completed by Superdex 200 prep grade size exclusion column. Purified protein was stored at −80° C. in 20 mM HEPES pH 7.5 and 100 mM NaCl.\nProtocol for Bromodomain BRD2, 3, 4 and T, BD1+BD2 mutant TR-FRET competition assays: All assay components were dissolved in an assay buffer composing of 50 mM HEPES pH7.4, 50 mM NaCl, 5% Glycerol, 1 mM DTT and 1 mM CHAPS. Reference Compound X was diluted, in assay buffer containing 20 nM single mutant, tandem bromodomain protein, to a concentration equivalent to 2*Kd for this bromodomain. The solution containing bromodomain and Reference Compound X was added to dose response dilutions of test compound or DMSO vehicle (a maximum of 0.5% DMSO is used in this assay) in Greiner 384 well black low volume microtitre plates and subsequently incubated for 30 minutes at room temperature. An equal volume of 3 nM of anti-6*His Europium chelate was added to all wells, followed by a further 30 minute incubation at room temperature. TR-FRET was detected using a Perkin Elmer Multimode plate reader, by exciting the donor fluorophore at λ337 nm and subsequently, after a delay of 50 μsecs, measuring emission of the donor and acceptor fluorophores at λ615 nm and λ665 nm, respectively. In order to control these assays, 16 replicates each of uninhibited (DMSO vehicle) and inhibited (10*IC50 concentrations of Example 11 of WO 2011/054846A1) TR-FRET assays were included on every microtitre plate.", "units": {"IC50": "µM"}, "values": [{"smiles": "CNC(=O)c1cc(C(=O)NCCc2cnn(C)c2)cc2c1OCC2c1ccc(F)cc1", "note": "(single isomer, unassigned) [Example 119, (R*)-3-(4-fluorophenyl)-N^7-methyl-N^5-(2-(1-methyl-1H-pyrazol-4-yl)ethyl)-2,3-dihydrobenzofuran-5,7-dicarboxamide]", "IC50": "1 to 100"}, {"smiles": "CNC(=O)c1cc(C(=O)Nc2nccn2C)cc2c1OCC2c1ccccc1", "note": "(centres unmarked) [Example 118, N^7-methyl-N^5-(1-methyl-1H-imidazol-2-yl)-3-phenyl-2,3-dihydrobenzofuran-5,7-dicarboxamide]", "IC50": "1 to 100"}, {"smiles": "CNC(=O)c1cc(C(=O)Nc2nnn(C)n2)cc2c1OC[C@H]2c1ccccc1", "note": "[Example 123, (S)-N^7-methyl-N^5-(2-methyl-2H-tetrazol-5-yl)-3-phenyl-2,3-dihydrobenzofuran-5,7-dicarboxamide]", "IC50": "1 to 100"}, {"smiles": "CNC(=O)c1cc(C(=O)N[C@H]2[C@@H]3COC[C@@H]32)cc2c1OC[C@@H]2c1ccc(OCCN)cc1", "note": "(single isomer, unassigned) [Example 111, (R*)-3-(4-(2-aminoethoxy)phenyl)-N^5-((1R,5S,6r)-3-oxabicyclo[3.1.0]hexan-6-yl)-N^7-methyl-2,3-dihydrobenzofuran-5,7-dicarboxamide]", "IC50": "1 to 100"}, {"smiles": "CNC(=O)c1cc(C(=O)NC2CC2)cc2c1OCC2C1CCOCC1", "note": "(centres unmarked) [Example 104, N^5-cyclopropyl-N^7-methyl-3-(tetrahydro-2H-pyran-4-yl)-2,3-dihydrobenzofuran-5,7-dicarboxamide]", "IC50": "1 to 100"}, {"smiles": "CNC(=O)c1cc(C(=O)N[C@H]2C[C@@H]2C)cc2c1OCC2C1CCOCC1", "note": "(single isomer, unassigned) [Example 121, (R*)-N^7-methyl-N^5-((1S,2S)-2-methylcyclopropyl)-3-(tetrahydro-2H-pyran-4-yl)-2,3-dihydrobenzofuran-5,7-dicarboxamide]", "IC50": "1 to 100"}, {"smiles": "CCNC(=O)c1cc(C(=O)NC)c2c(c1)C(c1cccc(C(=O)OCC)c1)CO2", "note": "(single isomer, unassigned) [Example 113, (R*)-ethyl 3-(5-(ethylcarbamoyl)-7-(methylcarbamoyl)-2,3-dihydrobenzofuran-3-yl)benzoate]", "IC50": "1 to 100"}, {"smiles": "CNC(=O)c1cc(C(=O)NCCn2cnnc2)cc2c1OCC2c1ccccc1", "note": "(centres unmarked) [Example 110, N^5-(2-(4H-1,2,4-triazol-4-yl)ethyl)-N^7-methyl-3-phenyl-2,3-dihydrobenzofuran-5,7-dicarboxamide]", "IC50": "1 to 100"}, {"smiles": "CNC(=O)c1cc(C(=O)NC2CC2)cc2c1OCC2C1CCOCC1", "note": "(single isomer, unassigned) [Example 120, (R*)-N^5-cyclopropyl-N^7-methyl-3-(tetrahydro-2H-pyran-4-yl)-2,3-dihydrobenzofuran-5,7-dicarboxamide]", "IC50": "1 to 100"}]}, {"test_system": "BET family (BRD2, BRD3, BRD4 and BRDT) tandem bromodomain proteins", "assay": "Fluorescence Polarisation binding of Reference Compound X to mutant tandem BET proteins", "set-up": "species or system Human", "settings": "double residue (Tyr to Ala) mutant tandem domain proteins", "procedure": "(§1) The competition of the compounds of formula (I) with Reference Compound X for binding to the BET family (BRD2, BRD3, BRD4 and BRDT) was assessed using protein truncates spanning both bromodomain 1 (BD1) and bromodomain 2 (BD2). In order to monitor differential binding to either BD1 or BD2, single residue mutations of key tyrosines to alanine were made in the acetyl lysine binding pockets. To validate this approach, a double residue mutant tandem domain protein was produced for each of the BET family members. Utilising a Fluorescence Polarisation approach, binding affinities for each of the single and double mutants for Reference Compound X were determined. […] The affinities of the single mutated bromdomain tandem proteins for Reference Compound X were equi-potent with the corresponding non-mutated BET protein. […] Final purification was completed by Superdex 200 prep grade size exclusion column. Purified protein was stored at −80° C. in 20 mM HEPES pH 7.5 and 100 mM NaCl. Protein identity was confirmed by peptide mass fingerprinting and predicted molecular weight confirmed by mass spectrometry.", "units": {"reduction in Kd (affinity), double mutant tandem proteins versus non mutated, wild type tandem BET proteins": "fold"}, "values": [{"smiles": "COc1ccc2c(c1)C(c1ccc(Cl)cc1)=N[C@@H](CC(=O)NCCCCCNC(=O)CCCCCC1(C)/C(=C/C=C/C=C/C3=[N+](CCCCS(=O)(=O)O)c4ccc(S(=O)(=O)O)cc4C3(C)C)N(CCCCS(=O)(=O)[O-])c3ccc(S(=O)(=O)O)cc31)c1nnc(C)n1-2", "note": "(some centres unmarked) [Reference Compound X]", "reduction in Kd (affinity), double mutant tandem proteins versus non mutated, wild type tandem BET proteins": "> 1000"}]}, {"test_system": "BET family (BRD2, BRD3, BRD4 and BRDT) tandem bromodomain proteins", "assay": "Fluorescence Polarisation binding of Reference Compound X to mutant tandem BET proteins", "set-up": "species or system Human", "settings": "single mutated tandem proteins", "procedure": "as §1", "values": [{"smiles": "COc1ccc2c(c1)C(c1ccc(Cl)cc1)=N[C@@H](CC(=O)NCCCCCNC(=O)CCCCCC1(C)/C(=C/C=C/C=C/C3=[N+](CCCCS(=O)(=O)O)c4ccc(S(=O)(=O)O)cc4C3(C)C)N(CCCCS(=O)(=O)[O-])c3ccc(S(=O)(=O)O)cc31)c1nnc(C)n1-2", "note": "(some centres unmarked) [Reference Compound X]", "affinities of the single mutated bromodomain tandem proteins versus the corresponding non-mutated BET protein": "equi-potent"}]}]}
